In PubChem BioAssay (NCI):
Values joined by “and” are separate entries in the source; they are usually repeats but may differ in a detail not shown here. Equal entries are not always repeated.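 Test compounds were applied to cells in 96-well plates for 48 hours at 5 doses. GI50 is the concentration that inhibits growth by half. TGI denotes the concentration required for complete inhibition of growth.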

How the values were obtained:
Assay in all cases: NCI tumour cell line growth inhibition, 48 h
MDA-N = test system: MDA-N
DMS 273 small cell lung = test system: DMS 273 small cell lung
RXF-631 renal = test system: RXF-631 renal
SNB-78 CNS = test system: SNB-78 CNS
LXFL 529 NSCLC = test system: LXFL 529 NSCLC
M19-MEL melanoma = test system: M19-MEL melanoma
XF 498 CNS = test system: XF 498 CNS
KM20L2 colon = test system: KM20L2 colon
HOP-18 NSCLC = test system: HOP-18 NSCLC

SMILES	TGI (MDA-N)	TGI (DMS 273 small cell lung) [µM]	TGI (RXF-631 renal) [µM]	TGI (SNB-78 CNS) [µM]	TGI (LXFL 529 NSCLC) [µM]	TGI (M19-MEL melanoma) [µM]	TGI (XF 498 CNS) [µM]	TGI (KM20L2 colon) [µM]	TGI (HOP-18 NSCLC) [µM]	further results
C[n+]1ccc(-c2c3nc(c(-c4ccc5c(ccc[n+]5C)c4)c4ccc([nH]4)c(-c4cc[n+](C)cc4)c4nc(c(-c5ccc6c(ccc[n+]6C)c5)c5ccc2[nH]5)C=C4)C=C3)cc1	> 50 µM									GI50 (MDA-N): 30 µM
C=C1C(=O)OC2/C=C(\C)C3OC3/C=C(/C(=O)OC)C(OC(C)=O)C(OC(=O)C(C)(O)C(C)OC(C)=O)C12 (configuration not stated)	69.1 µM	10.6	19.6	12.4	2.36	22.4	5.6			
CC1=C(C(=O)Nc2ccccc2C)C(c2ccc(C3C(C(=O)Nc4ccccc4C)=CNC=C3C(=O)Nc3ccccc3C)cc2)C(C(=O)Nc2ccccc2C)=C(C)N1		47.3		96.4	26.6	> 57.3	41.6	28.6	> 76	
CC(=O)OCC1OC(n2c(-c3ccccc3)c(C)c(C)c(C#N)c2=S)C(OC(C)=O)C(OC(C)=O)C1OC(C)=O (configuration not stated)	> 50 µM and 56.6 µM									
CC([O-])C(=O)[O-].NCC1CCC1CN.[Pt+4] (configuration not stated)	> 10 µM									GI50 (MDA-N): > 10 µM
Cc1cc2c(cc1C)[n+](=O)c(C(=O)/C=C/c1ccccc1Cl)c(C)n2[O-]		> 100	84.9	> 100	34.6	> 100	42.1	> 100	> 100	
CCC(/C(=N\Nc1c(Cl)cc(Cl)cc1Cl)c1ccccc1)n1ccnc1C (configuration not stated)		19.7	25	42.2	25.8	29.7		17.5	30.1	
O=C(c1ccc2c3c(ccc(C(=O)C(F)(F)F)c13)CC2)C(F)(F)F		> 100		> 100	> 100	> 100	50.2	> 100	> 100	
Oc1cc2c(cc1O)-c1[nH]ncc1CC2		> 100		> 100	> 100	> 100	86.7	> 100	61.8	
O=c1[nH]c(/C=C(\O)c2ccncc2)nc2ccccc12				> 100		> 100				
O=[N+]([O-])c1ccc(-c2cn(-c3ccc(Cl)cc3)cn2)cc1	> 100 µM									
CN(C)/C(N)=N/C(N)=S		> 100	> 100	> 100	> 100	> 100	> 100	> 100	> 100	
O=C1C(N2C(=O)c3ccccc3C2=O)CN1C(COCc1ccccc1)c1ccc(OCc2ccccc2)cc1 (configuration not stated)		> 100		> 100	> 100	> 100	> 100	> 100		
COC(=O)C1C2CCCN2OC1(C)CO (configuration not stated)	> 100 µM									
CCN(CC)CC(O)C1CCC(c2ccccc2)CC1 (configuration not stated)	41.8 µM									
N#CC1=C(c2ccccc2)C(O)(c2ccccc2)NC1=O (configuration not stated)		> 100	> 100		> 100	> 100	> 100	> 100	> 100	
COc1ccc(C(=O)O)c(Cc2ccc3ccccc3c2)c1		> 100		> 100	> 100	> 100	> 100	> 100	> 100	
ClC[Si]12OCCN(CCO1)CCO2		> 100	> 100	> 100	> 100				> 100	
CC(C)CC(=O)NS(=O)(=O)c1ccccc1			> 100	> 100	> 100	> 100	> 100	> 100	> 100	

SMILES	TGI (MDA-N)	TGI (DMS 273 small cell lung) [µM]	TGI (RXF-631 renal) [µM]	TGI (SNB-78 CNS) [µM]	TGI (LXFL 529 NSCLC) [µM]	TGI (M19-MEL melanoma) [µM]	TGI (XF 498 CNS) [µM]	TGI (KM20L2 colon) [µM]	TGI (HOP-18 NSCLC) [µM]	further results
S=C(N/N=C(/c1ccccc1)c1ccccn1)Nc1cccc(Cl)c1	7.35 µM and 6.85 µM									GI50 (MDA-N): 1.14 µM
COc1ccc(-c2coc3cc(OC)cc(O)c3c2=O)cc1	> 100 µM									
BrC12c3ccccc3Sc3ccccc3C1(Br)c1ccccc12 (configuration not stated)		87.2	98.8		59.7	> 100		41.6	> 100	
CC(Oc1ccc2cc(C(=O)c3ccccc3)c(=O)oc2c1)C(=O)O (configuration not stated)			> 100	> 100	> 100	> 100	> 100	> 100	> 100	
COc1ccc(CC2C3=C(CCCC3)CCN2C)cc1 (configuration not stated)	> 100 µM									
O=C1c2ccccc2C(=O)c2c1ccc1c2OCO1	> 100 µM									
CC(=O)c1ccc(NCN2C(=O)c3ccccc3C2=O)cc1	> 100 µM									
CC(=O)OCC1OC(Sc2ccccn2)C=CC1OC(C)=O (configuration not stated)		> 100			> 100	> 100	> 100	> 100	> 100	
CN1CCCCC1CCN1c2ccccc2Sc2ccc(S(C)=O)cc21 (configuration not stated)	> 100 µM									
COc1cc(-c2cc(CCC(=O)Nc3ccccc3[N+](=O)[O-])n(-c3ccc([N+](=O)[O-])cc3[N+](=O)[O-])n2)ccc1O		> 10	> 100	> 100	> 100	> 100	> 100	> 100	> 10	GI50 (KM20L2 colon): > 100 µM; GI50 (RXF-631 renal): > 100 µM; GI50 (SNB-78 CNS): > 100 µM; GI50 (LXFL 529 NSCLC): > 10 µM; GI50 (M19-MEL melanoma): > 100 µM
Cc1nc2cc(N)c(Cl)cc2[nH]1	> 100 µM									
CC(O[Si](C)(C)C)C1C=CC(C)n2c(=O)n(-c3ccccc3)c(=O)n21 (configuration not stated)				> 100		> 100			> 100	
CC1=C(c2cc(C(=O)Nc3nccs3)nc(NC#N)n2)Sc2ccccc2N1		> 100	> 100		> 100	> 100	> 100	> 100	> 100	
O=C(O)/C=C\C(=O)Nc1ccc2c(c1)C(=O)c1cc(F)ccc1-2	> 100 µM									
CC1(C)OC(=O)C(=C2CC(c3ccccc3)c3ccccc32)C(=O)O1 (configuration not stated)			> 100	> 100	> 100	> 100		> 100	> 100	
Cc1cc2c(c(N)c1C)C(=O)c1ccccc1C2=O		> 100		> 100	> 100	> 100		> 100	56	
CCC/C(=N\NC(=O)c1cc2ccccc2cc1O)C(CC)C(=O)CCC(=O)N(Cc1ccccc1)Cc1ccccc1 (configuration not stated)		52.8	> 100	> 100	> 100	48.6		> 100	91.1	
COC(=O)NN1C(C)=C(C(=O)OC)C2(CCOC2=O)C1(C)O (configuration not stated)		> 100	> 100	> 100	> 100		> 100	> 100	> 100	
c1ccc(C2N3CCCCC3[C@@H]3c4[nH]c5ccccc5c4CCN23)cc1 (some centres not stated)		> 100		> 100	> 100	> 100	> 100	> 100	> 100	
